The source of these data is patent US20040106644A1, “Composition for treatment of night sight problems(halos, comas and glare) after refractive surgery, intra ocular lens implant after lensectomy or intraocular implant in phakic patients comprising aceclidine employed at low concentrations” (priority 2001, published 2004).

Series [1] has as its system healthy people. The series is described as follows: pupillary diameter after instillation in healthy people. It is filed as in vivo, human. The note with it: ophthalmic composition with aceclidine in very low concentrations, for four to six hours (summary statement). The protocol: The two ophthalmic compositions, I and II dilution, were administered firstly to a group of healthy people: one eye was treated with the I dilution composition (0.016%), the second eye with the II dilution composition (0.032%), measuring the pupillary diameter in the same light conditions at 30 minutes, 1-2-3-4-5-6 hours after the first instillation.

Series [2] has as its system patients who underwent refractive surgery. The series is described as follows: double-masked randomized clinical trial on night sight problems (halos, coma, glare) after refractive surgery. In kind it is in vivo, human. The protocol: A double-masked randomized clinical trial with 14 patients (27 eyes) has been organized by dividing the patients in three different groups: 8 patients were treated with placebo, 10 patients were treated with a first ophthalmic composition (I dilution), 9 patients were treated with a second ophthalmic composition (II dilution).
The patients belonging to this trial had to go through an ophthalmic examination: of the haze grading and of natural and corrected visual acuity, intra ocular pressure (IOP), pupillometry in mesopic conditions with split lamp and examination of corneal maps. The anamnestic data about the surgical operation were collected: the refractive surgery technique employed (PRK/LASIK), the date of the surgical operation, data about the corrected optical zone and the ametropy kind. The night sight problems had to be stable for at least three months after the surgical operation for the patient to be included in the trial.
The patients had to identify the image they perceived before and during the pharmacological treatment, with follow-up examinations fixed every 15-30 days. At the end of the clinical trial the patients had to provide information about the efficacy and duration (in terms of hours) of the treatment, onset time of the effect, changes of the visual capabilities and side effects, if any.
The ophthalmic compositions were prepared according to the following procedure:
I dilution, 4 IU of aceclidine 2% were diluted in 5 mL of hyaluronic acid (0.200 g/100 mL)
II dilution, 8 IU of aceclidine 2% were diluted in 5 mL of hyaluronic acid (0.200 g/100 mL)
Placebo consisted in 5 mL of hyaluronic acid (0.200 g/100 mL).
The three ophthalmic compositions (I dilution, II dilution and placebo) were administered to the 14 patients belonging to the clinical trial in a blind way.

Where [3] appears, read: patients treated with refractive surgery, aceclidine in very low concentrations (summary statement).

Each structure is given as a SMILES string.

`CC(=O)OC1CN2CCC1CC2` (stereo not drawn) [aceclidine, 3-acetoxyquinuclidine]: the pupil diameter reduction in series [1] is recorded as 2-3 mm. Further, in series [2] (aceclidine 0.016% to 0.040% of total weight), the “side effects in the effective concentration range” value is on record as “no relevant side effects are detectable”. Moreover, the “duration of action after instillation” value in series [2] (aceclidine 0.016% to 0.040%, instilled 10-20 minutes before need (summary statement)) lay in the range of 4 to 6 h. In addition, in series [2] (setting [3]), the “duration of light, transitory conjunctival hyperemia” value lay in the range of 5 to 10 min; the “headache or sight reduction” value is given as “no headache or sight reduction”; the “improvement of halos, coma and glare” value was “statistically significant improvement”.
